According to patent US11371022B2, “Blood-brain barrier endothelial cells derived from pluripotent stem cells for blood-brain barrier models” (PRESIDENT AND FELLOWS OF HARVARD COLLEGE, priority 2016, dated 2022):

Experiments:
[1] = test system: efflux pump; test: DiOC2 permeability test of efflux pump function in BBB chip; assay type: in vitro ADME, human; settings: hypoxia stimulation vs normoxia BBB chip; FIG. 9B
Text: FIGS. 9A-9C are bar graphs showing the inhibition of the efflux transporter in control and hypoxic stimulated BBB chips by verapamil, MK-571 or KO143. […] All inhibitor-treated samples were independently normalized to the corresponding mock control.
A non-limiting example of assembling a BBB model in a microfluidic chip having flow, using the hypoxia differentiated PSCs-to-BMVECs is as follows. To assemble the BBB model on microfluidic chips, polydimethylsiloxane (PDMS) microfluidic chip was plasma treated (0.5 mbar, 50 W, 2 min) and coated with 0.01% poly-L-lysine solution for 1 hour. Subsequently, 400 ug/ml collagen IV and 100 μg/ml fibronectin were treated to microfluidic chips and incubated overnight in normal cell culture condition (37 C, 5% CO2, 20% O2). A day after coating, ECM solution was rinsed with EC+RA medium. The harvested astrocytes and pericytes were resuspended at 0.7 and 0.3 million cells/mL in EC+RA medium. Mixture of cells was seeded on apical micro-channel, and placed in incubator for 1 hour allowing the cells to adhere to membrane. The differentiated BMVECs on 6-cm plastic culture dish were dissociated using Accutase, harvested, and resuspended 25 million cells/mL in degassed EC+RA media. The differentiated BMVECs were seeded on basal micro-channel, and flip the entire PDMS chip upside down in petri dish to allow the BMVEC to attach to the membrane. […]

[2] = target: T1, ABCB1 (Homo sapiens, UniProt P08183); test: Doxorubicin permeability across BBB chip with or without verapamil (efflux pump inhibition); assay type: in vitro ADME; settings: FIG. 9C
T1 construct: The BBB model chip comprises iPSC-derived, hypoxia-stimulated or -differentiated BMVECs; endogenous in cells; host or cells: human iPSC (IMR90-4)-derived brain microvascular endothelial cells, co-cultured with astrocytes and pericytes on a microfluidic chip
Text: Doxorubicin is known as a substrate of ABCB1.

[3] = target: T2, ABCB (P-gp) (Homo sapiens, UniProt P08183); settings: iPS-derived BMVEC generated using published protocol, in vitro; cited from earlier work
T2 construct: host or cells: iPS-derived BMVEC (published protocol)

[4] = target: T3, ABCB (P-gp) (Mus musculus, UniProt P21447); settings: cited from earlier work
T3 construct: compared to in vivo efflux ratios (2.4-fold) (Cell, 1994, 77, 4)
T3 sequence (P21447 whole entry): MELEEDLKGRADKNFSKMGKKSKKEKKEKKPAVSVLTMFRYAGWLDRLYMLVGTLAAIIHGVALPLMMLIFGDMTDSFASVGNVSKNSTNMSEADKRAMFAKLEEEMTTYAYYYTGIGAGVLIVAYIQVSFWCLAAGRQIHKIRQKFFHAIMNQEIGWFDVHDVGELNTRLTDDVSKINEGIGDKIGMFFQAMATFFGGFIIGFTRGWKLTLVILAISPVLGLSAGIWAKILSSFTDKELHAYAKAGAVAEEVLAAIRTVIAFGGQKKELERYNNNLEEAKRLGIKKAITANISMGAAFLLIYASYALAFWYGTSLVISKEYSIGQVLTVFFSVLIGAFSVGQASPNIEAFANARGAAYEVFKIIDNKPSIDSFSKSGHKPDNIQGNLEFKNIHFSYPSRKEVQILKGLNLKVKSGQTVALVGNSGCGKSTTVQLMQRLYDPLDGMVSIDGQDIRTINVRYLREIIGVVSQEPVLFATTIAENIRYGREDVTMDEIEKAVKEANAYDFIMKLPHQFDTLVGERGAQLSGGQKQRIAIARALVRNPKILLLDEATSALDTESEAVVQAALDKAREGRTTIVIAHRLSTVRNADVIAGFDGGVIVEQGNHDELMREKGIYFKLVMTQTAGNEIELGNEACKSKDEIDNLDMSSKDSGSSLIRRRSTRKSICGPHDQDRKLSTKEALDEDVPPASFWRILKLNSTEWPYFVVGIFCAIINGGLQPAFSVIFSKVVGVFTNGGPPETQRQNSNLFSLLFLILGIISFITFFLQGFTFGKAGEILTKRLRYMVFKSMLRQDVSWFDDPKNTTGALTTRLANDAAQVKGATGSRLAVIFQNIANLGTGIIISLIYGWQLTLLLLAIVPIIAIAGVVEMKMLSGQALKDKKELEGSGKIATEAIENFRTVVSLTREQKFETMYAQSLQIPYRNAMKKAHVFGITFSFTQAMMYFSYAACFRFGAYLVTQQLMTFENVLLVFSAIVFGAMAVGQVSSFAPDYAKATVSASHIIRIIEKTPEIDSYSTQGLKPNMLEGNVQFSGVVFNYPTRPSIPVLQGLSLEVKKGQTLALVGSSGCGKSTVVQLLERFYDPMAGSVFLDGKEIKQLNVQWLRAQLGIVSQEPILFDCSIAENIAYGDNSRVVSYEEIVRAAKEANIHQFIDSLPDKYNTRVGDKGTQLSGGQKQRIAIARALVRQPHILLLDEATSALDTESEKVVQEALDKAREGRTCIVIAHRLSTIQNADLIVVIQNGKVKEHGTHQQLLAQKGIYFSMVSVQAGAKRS

T1 sequence (P08183 whole entry): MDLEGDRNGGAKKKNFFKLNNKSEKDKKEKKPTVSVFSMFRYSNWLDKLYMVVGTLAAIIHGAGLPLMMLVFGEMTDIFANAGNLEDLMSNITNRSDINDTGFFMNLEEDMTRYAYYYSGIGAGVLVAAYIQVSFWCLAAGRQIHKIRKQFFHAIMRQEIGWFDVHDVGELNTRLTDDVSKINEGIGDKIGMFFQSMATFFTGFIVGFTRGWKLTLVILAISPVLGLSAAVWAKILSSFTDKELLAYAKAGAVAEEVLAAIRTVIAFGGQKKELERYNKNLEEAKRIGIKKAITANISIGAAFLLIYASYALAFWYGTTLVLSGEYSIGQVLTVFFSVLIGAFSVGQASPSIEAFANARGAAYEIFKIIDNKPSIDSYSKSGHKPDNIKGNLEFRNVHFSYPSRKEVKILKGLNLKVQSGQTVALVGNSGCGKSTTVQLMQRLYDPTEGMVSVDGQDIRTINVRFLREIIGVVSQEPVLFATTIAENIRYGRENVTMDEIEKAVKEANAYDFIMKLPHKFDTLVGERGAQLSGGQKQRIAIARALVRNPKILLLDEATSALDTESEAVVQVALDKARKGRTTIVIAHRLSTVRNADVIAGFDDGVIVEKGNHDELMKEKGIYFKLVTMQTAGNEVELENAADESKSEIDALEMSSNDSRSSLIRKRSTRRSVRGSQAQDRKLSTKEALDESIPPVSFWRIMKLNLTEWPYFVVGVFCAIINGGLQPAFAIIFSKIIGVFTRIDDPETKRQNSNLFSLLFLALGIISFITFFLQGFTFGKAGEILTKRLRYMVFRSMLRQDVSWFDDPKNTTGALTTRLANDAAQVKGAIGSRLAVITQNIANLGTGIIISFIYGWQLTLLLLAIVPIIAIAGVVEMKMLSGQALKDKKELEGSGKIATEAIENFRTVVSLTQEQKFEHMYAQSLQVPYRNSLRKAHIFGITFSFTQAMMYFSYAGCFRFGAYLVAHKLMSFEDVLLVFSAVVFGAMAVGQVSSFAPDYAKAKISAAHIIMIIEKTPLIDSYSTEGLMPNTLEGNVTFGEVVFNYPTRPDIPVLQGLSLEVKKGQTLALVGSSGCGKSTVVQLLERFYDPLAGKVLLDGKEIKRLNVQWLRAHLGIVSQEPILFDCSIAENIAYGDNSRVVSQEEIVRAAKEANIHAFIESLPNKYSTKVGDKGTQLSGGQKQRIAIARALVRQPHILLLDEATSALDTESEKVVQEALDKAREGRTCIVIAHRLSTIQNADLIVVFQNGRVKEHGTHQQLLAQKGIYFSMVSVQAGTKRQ
T2 sequence (P08183 whole entry): as above

Row | efflux pump function in DiO2 test [1] | doxorubicin permeability, increase by verapamil treatment ([2]; hypoxia BBB chip, verapamil (ABCB1 inhibitor) vs mock control) [fold] | change of doxorubicin BBB penetration by verapamil ([2]; normoxia control BBB chip) | Structure (SMILES) | efflux ratio [3] [fold] | in vivo efflux ratios [4] [fold]
1 | enhanced efflux pump function |  |  | CCN1/C(=C/C=C/c2oc3ccccc3[n+]2CC)Oc2ccccc21.[I-] [DiO2] |  | 
2 |  | 2.7 | did not show significant change | COc1cccc2c1C(=O)c1c(O)c3c(c(O)c1C2=O)C[C@@](O)(C(=O)CO)C[C@@H]3O[C@H]1C[C@H](N)[C@H](O)[C@H](C)O1 [Doxorubicin, doxorubicin] | 1.3 | 2.4
